Earlier results as cited in US10010703B2, “Drug device configured for wireless communication” (POP TEST ABUSE DETERRENT TECHNOLOGY LLC, priority 2014, dated 2018).

Assays:
[1] = target: T1, glucocorticoid receptor (Homo sapiens, UniProt P04150)
T1 sequence (P04150 1-777): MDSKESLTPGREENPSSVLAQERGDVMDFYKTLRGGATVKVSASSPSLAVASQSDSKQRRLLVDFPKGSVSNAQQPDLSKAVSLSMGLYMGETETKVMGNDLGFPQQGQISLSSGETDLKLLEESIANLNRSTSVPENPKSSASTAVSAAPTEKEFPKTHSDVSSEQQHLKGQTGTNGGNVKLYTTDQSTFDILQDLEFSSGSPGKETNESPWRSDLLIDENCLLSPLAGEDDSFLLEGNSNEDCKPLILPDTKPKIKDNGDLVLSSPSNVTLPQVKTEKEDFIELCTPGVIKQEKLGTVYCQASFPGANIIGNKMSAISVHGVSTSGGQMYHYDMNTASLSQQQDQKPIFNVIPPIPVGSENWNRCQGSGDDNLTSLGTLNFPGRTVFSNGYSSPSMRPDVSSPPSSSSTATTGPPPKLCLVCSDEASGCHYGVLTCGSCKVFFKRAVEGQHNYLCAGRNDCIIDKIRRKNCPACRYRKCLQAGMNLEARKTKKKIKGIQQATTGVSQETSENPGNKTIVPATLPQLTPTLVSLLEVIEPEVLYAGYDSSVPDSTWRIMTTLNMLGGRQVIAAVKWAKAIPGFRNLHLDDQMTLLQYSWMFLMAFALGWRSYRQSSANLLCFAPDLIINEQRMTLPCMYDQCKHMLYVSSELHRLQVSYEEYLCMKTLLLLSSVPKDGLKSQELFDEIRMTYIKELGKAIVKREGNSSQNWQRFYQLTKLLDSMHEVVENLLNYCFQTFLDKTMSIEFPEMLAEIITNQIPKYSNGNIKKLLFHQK

[2] = target: T2, progesterone receptor (Homo sapiens, UniProt P06401)
T2 sequence (P06401 1-933): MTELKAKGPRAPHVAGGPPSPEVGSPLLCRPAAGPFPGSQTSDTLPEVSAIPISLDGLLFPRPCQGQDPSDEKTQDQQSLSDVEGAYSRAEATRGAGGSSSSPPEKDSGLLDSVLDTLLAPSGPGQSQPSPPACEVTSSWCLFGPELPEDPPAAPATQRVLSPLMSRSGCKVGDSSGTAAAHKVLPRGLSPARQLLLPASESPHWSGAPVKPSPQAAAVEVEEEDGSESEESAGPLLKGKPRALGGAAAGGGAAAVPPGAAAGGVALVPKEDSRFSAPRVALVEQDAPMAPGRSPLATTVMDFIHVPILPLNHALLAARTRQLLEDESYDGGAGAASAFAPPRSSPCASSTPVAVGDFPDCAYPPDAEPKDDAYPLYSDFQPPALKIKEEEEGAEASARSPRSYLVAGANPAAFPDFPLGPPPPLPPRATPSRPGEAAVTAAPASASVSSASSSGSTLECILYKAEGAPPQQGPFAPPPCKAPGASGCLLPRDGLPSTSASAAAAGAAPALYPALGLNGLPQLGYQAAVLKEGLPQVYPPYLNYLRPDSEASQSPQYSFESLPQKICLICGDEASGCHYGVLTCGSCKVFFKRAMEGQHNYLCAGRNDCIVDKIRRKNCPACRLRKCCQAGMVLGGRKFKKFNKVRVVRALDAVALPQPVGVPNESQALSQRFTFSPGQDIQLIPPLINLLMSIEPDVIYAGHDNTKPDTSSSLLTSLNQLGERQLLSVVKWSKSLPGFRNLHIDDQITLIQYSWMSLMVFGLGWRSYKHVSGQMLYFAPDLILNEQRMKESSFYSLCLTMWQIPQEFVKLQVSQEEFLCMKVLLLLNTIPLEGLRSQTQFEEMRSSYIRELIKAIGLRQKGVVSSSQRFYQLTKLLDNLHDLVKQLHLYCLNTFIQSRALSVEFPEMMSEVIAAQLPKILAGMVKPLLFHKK

[3] = target: T3, estrogen receptor (Homo sapiens, UniProt P03372)
T3 sequence (P03372 1-595): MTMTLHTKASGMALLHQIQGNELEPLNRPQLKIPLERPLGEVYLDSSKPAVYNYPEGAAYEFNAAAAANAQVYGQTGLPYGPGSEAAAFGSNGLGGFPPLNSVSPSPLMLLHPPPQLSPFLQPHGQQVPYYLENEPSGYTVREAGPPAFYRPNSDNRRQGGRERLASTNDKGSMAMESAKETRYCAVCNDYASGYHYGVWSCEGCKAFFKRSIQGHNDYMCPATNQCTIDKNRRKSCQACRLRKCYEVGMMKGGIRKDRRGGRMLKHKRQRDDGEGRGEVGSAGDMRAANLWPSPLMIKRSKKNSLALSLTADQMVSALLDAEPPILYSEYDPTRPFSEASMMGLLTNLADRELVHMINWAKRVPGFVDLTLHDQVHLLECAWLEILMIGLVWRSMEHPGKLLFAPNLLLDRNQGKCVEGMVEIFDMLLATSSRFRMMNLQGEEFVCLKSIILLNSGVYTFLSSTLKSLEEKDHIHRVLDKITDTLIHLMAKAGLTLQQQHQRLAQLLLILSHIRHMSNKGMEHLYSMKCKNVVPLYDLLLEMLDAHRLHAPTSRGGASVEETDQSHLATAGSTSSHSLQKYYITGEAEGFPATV

[4] = phase I and phase II clinical trials

Compound: CC#C[C@]1(O)CC[C@H]2[C@@H]3CCC4=CC(=O)CCC4=C3[C@@H](c3ccc4c(c3)OCO4)C[C@@]21C [ORG 34517, (11β,17β)-11-(1,3-benzodioxol-5-yl)-17-hydroxy-17-(1-propynyl) estra-4,9-dien-3-one]
- glucocorticoid receptor binding affinity [1]: high
- affinity for / cross-binding to progesterone receptor [2]: without significant cross-binding
- affinity for / cross-binding to estrogen receptor [3]: without significant cross-binding
- significant toxicities and side effects [4]: none were identified
